Values of other authors in patent US12194020B2, “Reversing baldness through cannabinoid receptor activation” (priority 2017, dated 2025).

Legend:
[1] = tested on: human scalp hair follicles (HF); details: human HF organ culture
CB2 = CB2 (Homo sapiens, UniProt P34972)
[2] = bimatoprost applied to the base of the fingernails
NO production = details: read-out: IC50, inhibits NO production

Chain of CB2 (P34972 whole entry, species assumed): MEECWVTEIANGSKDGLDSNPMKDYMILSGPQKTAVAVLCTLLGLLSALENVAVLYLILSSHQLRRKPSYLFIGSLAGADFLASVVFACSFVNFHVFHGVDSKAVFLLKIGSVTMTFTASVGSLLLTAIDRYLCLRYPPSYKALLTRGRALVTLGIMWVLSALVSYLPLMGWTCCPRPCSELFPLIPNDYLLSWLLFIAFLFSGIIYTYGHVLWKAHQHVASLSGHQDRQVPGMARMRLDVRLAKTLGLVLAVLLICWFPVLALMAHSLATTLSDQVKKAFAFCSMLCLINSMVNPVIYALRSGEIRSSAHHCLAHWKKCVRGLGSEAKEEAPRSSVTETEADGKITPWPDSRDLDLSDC

In the case of `CCCCC/C=C\C/C=C\C/C=C\C/C=C\CCCC(=O)NCCO` [AEA, N-arachidonoylethanolamide], the “apoptosis of cultured human HF / hair matrix keratinocytes” value [1] is given as “stimulates apoptosis”, the “hair matrix / HF keratinocyte proliferation” value [1] is given as “significantly (P<0.05) and dose-dependently inhibited” and the hair shaft elongation [1] is given as “significantly (P<0.05) and dose-dependently inhibited”.

In the case of `Cc1c(C(=O)NN2CCCCC2)nn(-c2ccc(Cl)cc2Cl)c1-c1ccc(Cl)cc1` [SR141716A], the “affinity for CB2” value (CB2) is listed as “very low affinity”.

For `CCCCCc1cc(O)c2c(c1)OC(C)(C)[C@@H]1CCC(C)=C[C@@H]21` [THC, Δ^9-tetrahydrocannabinol], the “apoptosis of cultured human HF / hair matrix keratinocytes” value [1] is listed as “induced”, the catagen development [1] is listed as “premature catagen development” and the “hair matrix / HF keratinocyte proliferation” value [1] is listed as “suppressed proliferation”. The hair shaft elongation [1] was “significantly inhibited”.

In the case of `CCNC(=O)CCC/C=C\C[C@@H]1[C@@H](/C=C/[C@@H](O)CCc2ccccc2)[C@H](O)C[C@@H]1O` [bimatoprost], the “increase in fingernail growth from baseline” value [2] is given as 16.9%.

For `C=CCc1ccc(O)c(-c2cc(CC=C)ccc2O)c1` [magnolol], the IC50 (NO production) is given as about 6.2 µM.

For desulfohaplosamate, the “affinity for CB2” value (CB2) is given as “higher affinity”.

For haplosamate A, the “affinity for CB1” value (CB1) is given as “strong affinity”.
